Here are results for seven molecules from ChEMBL document CHEMBL4823307, “Discovery of benzimidazole derivatives as potent and selective aldehyde dehydrogenase 1A1 (ALDH1A1) inhibitors with glucose consumption improving activity” (Bioorg Med Chem, 2021).

Data set [1] addresses T1, Aldehyde dehydrogenase 1A1 (Homo sapiens, UniProt P00352).
T1 sequence (P00352 whole entry): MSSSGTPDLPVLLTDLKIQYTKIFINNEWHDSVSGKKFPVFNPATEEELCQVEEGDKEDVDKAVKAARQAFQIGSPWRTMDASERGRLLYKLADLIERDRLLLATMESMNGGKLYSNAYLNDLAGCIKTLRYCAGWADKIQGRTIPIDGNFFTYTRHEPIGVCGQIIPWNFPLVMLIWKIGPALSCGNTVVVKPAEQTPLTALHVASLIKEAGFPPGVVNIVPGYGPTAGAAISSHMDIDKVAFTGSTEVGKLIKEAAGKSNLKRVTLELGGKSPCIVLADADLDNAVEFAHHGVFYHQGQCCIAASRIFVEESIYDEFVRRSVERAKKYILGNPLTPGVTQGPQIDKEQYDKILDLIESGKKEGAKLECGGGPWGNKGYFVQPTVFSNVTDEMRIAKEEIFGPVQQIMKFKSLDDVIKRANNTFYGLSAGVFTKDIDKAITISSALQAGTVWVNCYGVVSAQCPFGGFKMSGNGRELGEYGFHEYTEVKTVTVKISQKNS
Briefly: Inhibition of human ALDH1A1 assessed as NADH formation using propionaldehyde as substrate by spectrophotometry.

The target in data set [2] is T2, Aldehyde dehydrogenase 1A1 (Homo sapiens) (UniProt P00352).
T2 sequence (whole entry): T1 sequence (P00352 whole entry)
Briefly: Inhibition of human ALDH1A1 assessed as NADH formation using propionaldehyde as substrate at 10 uM by spectrophotometry.

In a further data set the target is T3, Retinal dehydrogenase 2 (Homo sapiens, UniProt O94788).
T3 sequence (O94788 whole entry): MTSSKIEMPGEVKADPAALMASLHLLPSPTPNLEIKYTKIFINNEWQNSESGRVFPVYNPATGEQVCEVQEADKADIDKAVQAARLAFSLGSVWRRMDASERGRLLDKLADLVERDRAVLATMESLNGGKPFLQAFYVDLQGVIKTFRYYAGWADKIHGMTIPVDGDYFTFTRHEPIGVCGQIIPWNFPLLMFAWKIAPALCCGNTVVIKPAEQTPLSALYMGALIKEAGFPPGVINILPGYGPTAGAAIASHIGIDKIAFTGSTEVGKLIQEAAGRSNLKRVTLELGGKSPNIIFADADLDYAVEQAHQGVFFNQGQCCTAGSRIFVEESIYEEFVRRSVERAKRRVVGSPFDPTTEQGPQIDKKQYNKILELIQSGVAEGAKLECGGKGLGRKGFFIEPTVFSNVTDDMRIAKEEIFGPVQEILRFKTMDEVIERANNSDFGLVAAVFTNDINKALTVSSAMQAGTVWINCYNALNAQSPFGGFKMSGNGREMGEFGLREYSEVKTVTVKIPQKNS
Briefly: Inhibition of human ALDH1A2 assessed as NADH formation using propionaldehyde as substrate by spectrophotometry.

Data set [3] deals with T4, Retinaldehyde dehydrogenase 3 (Homo sapiens, UniProt P47895).
T4 sequence (P47895 whole entry): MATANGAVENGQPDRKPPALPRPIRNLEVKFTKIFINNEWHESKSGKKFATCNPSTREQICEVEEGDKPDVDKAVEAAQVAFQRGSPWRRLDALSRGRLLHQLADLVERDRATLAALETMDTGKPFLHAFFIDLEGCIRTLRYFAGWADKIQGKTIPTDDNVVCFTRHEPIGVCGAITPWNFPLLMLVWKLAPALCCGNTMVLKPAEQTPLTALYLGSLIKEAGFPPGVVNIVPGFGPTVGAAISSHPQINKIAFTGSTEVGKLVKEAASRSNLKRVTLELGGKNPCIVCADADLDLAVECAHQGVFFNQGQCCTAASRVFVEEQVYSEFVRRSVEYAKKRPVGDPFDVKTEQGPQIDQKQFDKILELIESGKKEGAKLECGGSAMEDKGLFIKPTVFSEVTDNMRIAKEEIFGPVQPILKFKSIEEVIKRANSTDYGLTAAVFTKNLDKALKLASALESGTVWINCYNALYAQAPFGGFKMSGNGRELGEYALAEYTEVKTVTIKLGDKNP
Briefly: Inhibition of human ALDH1A3 assessed as NADH formation using propionaldehyde as substrate by spectrophotometry.

The target in data set [4] is T5, Aldehyde dehydrogenase, mitochondrial (Homo sapiens, UniProt P05091).
T5 sequence (P05091 whole entry): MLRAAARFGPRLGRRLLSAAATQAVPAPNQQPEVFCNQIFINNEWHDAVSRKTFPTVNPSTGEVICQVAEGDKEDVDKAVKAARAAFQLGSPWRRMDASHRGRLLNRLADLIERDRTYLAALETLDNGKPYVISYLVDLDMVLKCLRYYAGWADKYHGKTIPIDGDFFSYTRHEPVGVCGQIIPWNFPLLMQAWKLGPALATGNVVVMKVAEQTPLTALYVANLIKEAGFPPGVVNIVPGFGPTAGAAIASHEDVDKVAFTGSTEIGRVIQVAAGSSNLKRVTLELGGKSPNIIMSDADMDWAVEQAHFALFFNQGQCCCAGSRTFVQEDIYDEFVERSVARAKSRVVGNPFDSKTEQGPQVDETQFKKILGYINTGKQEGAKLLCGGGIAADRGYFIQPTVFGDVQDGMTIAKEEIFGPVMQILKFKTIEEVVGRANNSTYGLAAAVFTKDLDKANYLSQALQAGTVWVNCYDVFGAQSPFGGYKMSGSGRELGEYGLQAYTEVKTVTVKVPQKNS
Put plainly: Inhibition of human ALDH2 assessed as NADH formation using propionaldehyde as substrate by spectrophotometry.

The nature of data set [5]: Cytotoxicity against human HepG2 cells assessed as cell viability at 0.1 uM incubated for 24 hrs by MTT assay relative to control. It counts as cell-based. Conditions: read-out: Activity. On the technique in general: Tetrazolium assays rely on reduction of a dye to a coloured formazan, in cell work by metabolically active cells.
Data set [6] can be described thus: Cytotoxicity against human HepG2 cells assessed as cell viability at 1 uM incubated for 24 hrs by MTT assay relative to control. The settings on record: read-out: Activity. Format: cell-based.
Data set [7] in a line: Cytotoxicity against human HepG2 cells assessed as cell viability at 10 uM incubated for 24 hrs by MTT assay relative to control. It counts as cell-based. The settings on record: read-out: Activity.
In data set [8] the test system is HepG2. Briefly: Cytotoxicity against human HepG2 cells assessed as morphological changes at 0.1 to 10 uM incubated for 24 hrs. Format: cell-based. The settings on record: hepg2, 24 h, dose 0.1-10 µM.
Data set [9] deals with HepG2. Briefly: Increase in glucose consumption in human HepG2 cells at 10 uM by glucose oxidase assay. Format: functional.
Data set [10] in a line: Metabolic stability in human liver microsomes assessed as half life at 2 ug/ml measured up to 45 mins by LC-MS/MS analysis. Format: ADME, Microsome. Conditions: dose 2 µg/ml. A general note: Liver microsomes are vesicles of endoplasmic reticulum, rich in cytochrome P450 enzymes.
Data set [11] in a line: Metabolic stability in human liver microsomes assessed as intrinsic clearance at 2 ug/ml measured up to 45 mins by LC-MS/MS analysis. The settings on record: dose 2 µg/ml, read-out: CLH. Format: ADME, Microsome.
Data set [12] can be described thus: Metabolic stability in human liver microsomes assessed as first order elimination rate constant at 2 ug/ml measured up to 45 mins by LC-MS/MS analysis. Format: ADME, Microsome. The settings on record: dose 2 µg/ml.
In data set [13] the target is T6, Aldehyde dehydrogenase, dimeric NADP-preferring (Homo sapiens, UniProt P30838).
T6 sequence (P30838 whole entry): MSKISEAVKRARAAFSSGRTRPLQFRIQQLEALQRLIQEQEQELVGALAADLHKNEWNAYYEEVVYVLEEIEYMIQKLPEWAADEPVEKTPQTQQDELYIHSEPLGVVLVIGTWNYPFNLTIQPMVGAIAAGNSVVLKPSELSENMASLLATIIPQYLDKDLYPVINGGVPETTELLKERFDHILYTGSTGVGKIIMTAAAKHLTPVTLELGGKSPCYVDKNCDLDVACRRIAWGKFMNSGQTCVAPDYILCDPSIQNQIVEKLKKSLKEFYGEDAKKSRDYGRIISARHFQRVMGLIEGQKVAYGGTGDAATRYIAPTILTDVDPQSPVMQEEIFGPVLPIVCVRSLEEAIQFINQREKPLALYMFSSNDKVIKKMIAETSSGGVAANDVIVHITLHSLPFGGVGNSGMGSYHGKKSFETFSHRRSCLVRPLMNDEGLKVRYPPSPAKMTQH
Briefly: Inhibition of human ALDH3A1 assessed as NADH formation using propionaldehyde as substrate by spectrophotometry.

Structures are written as SMILES.

On to `Cc1cccc(Cn2c(CN3CCN(C(=O)C4CC4)CC3)nc3ccccc32)c1`, for which the half-inhibitory concentration (IC50) (usually the point on the concentration scale where inhibition reaches its midpoint) in data set [1] was found to be 243 nM; on Retinal dehydrogenase 2, 1580 nM; in data set [3], 2120 nM; in data set [4], 790 nM. In data set [2], the inhibition (commonly the drop in the measured response relative to a control, in per cent) was 89.1%. Also, the viability at 24 h, 0.1 µM in [5] was found to be 93.4%. Also, the viability at 24 h, 1 µM in data set [6] was 91.3%. The viability at 24 h, 10 µM in data set [7] came to 90%. Further, the Activity entry in the data set on HepG2 [8] was “Non-Toxic”; in the data set with HepG2 [9], 25%. Moreover, the half-life (as a rule, the time in which the quantity being followed falls by half) at 2 ug/ml in [10] is 35 min. Besides, in data set [11], the microsomal CLint at 2 ug/ml was 80 µL/min/mg. Also, the k el at 0.75 h, 2 ug/ml in [12] was 0.000333 s⁻¹.
As for `CCC(=O)N1CCN(Cc2nc3ccccc3n2Cc2cccc(C)c2)CC1`, the half-maximal inhibitory concentration (IC50) is 626 nM in data set [1], 2090 nM on Retinal dehydrogenase 2, 1680 nM in [3] and 3230 nM in [4]. For the same molecule, the inhibition in [2] is 85.1%. In addition, the viability at 24 h, 0.1 µM in [5] came out at 89.7%. Further, the viability at 24 h, 1 µM in [6] came out at 91.8%. The viability at 24 h, 10 µM in data set [7] is 85.4%. In addition, the figures for the Activity entry in the data set on HepG2 [8] and in the data set with HepG2 [9] were “Non-Toxic” and 15%, respectively.
As to `O=C(C1CC1)N1CCN(Cc2nc3ccccc3n2Cc2cccc(C(F)(F)F)c2)CC1`, the IC50 turned out to be 921 nM in [1], 1370 nM on Retinal dehydrogenase 2, 590 nM in [3] and 2170 nM in data set [4]. For the same molecule, the inhibition in [2] turned out to be 82.1%. Besides, the viability at 24 h, 0.1 µM in data set [5] worked out at 95.9%. Further, in data set [6], the viability at 24 h, 1 µM was 91.8%. Moreover, the viability at 24 h, 10 µM in data set [7] was 90%. Besides, the Activity result was “Non-Toxic” with HepG2 [8] and 30% in the data set on HepG2 [9]. Further, the half-life at 2 ug/ml in data set [10] worked out at 27 min. Also, the microsomal CLint at 2 ug/ml in data set [11] was 104 µL/min/mg. Also, in data set [12], the k el at 0.75 h, 2 ug/ml is 0.000433 s⁻¹.
Take `O=C(C1CC1)N1CCN(Cc2nc3ccccc3n2Cc2ccccc2Cl)CC1`: the IC50 in data set [1] is 1020 nM; at Retinal dehydrogenase 2 it was 1970 nM; in data set [3], 2410 nM; in data set [4], 3160 nM; in data set [13], 1900 nM. The inhibition in data set [2] stood at 78.3%. Moreover, the viability at 24 h, 0.1 µM in data set [5] came to 93.8%. The viability at 24 h, 1 µM in [6] was 91.9%. In data set [7], the viability at 24 h, 10 µM came to 85.7%. The values for the Activity result in the data set with HepG2 [8] and in the data set with HepG2 [9] were “Non-Toxic” and 28%, respectively. Also, the half-life at 2 ug/ml in data set [10] worked out at 32 min. For the same molecule, in [11], the microsomal CLint at 2 ug/ml stood at 88 µL/min/mg. In [12], the k el at 0.75 h, 2 ug/ml is 0.000367 s⁻¹.
As to `Cc1cccc(Cn2c(CN3CCN(C(=O)C(C)C)CC3)nc3ccccc32)c1`, the half-inhibitory concentration (IC50) stood at 458 nM in data set [1], 2780 nM at Retinal dehydrogenase 2, 2880 nM in data set [3] and 2270 nM in data set [4]. For the same molecule, the inhibition in [2] turned out to be 87.2%. Moreover, the viability at 24 h, 0.1 µM in [5] was 98.4%. Also, the viability at 24 h, 1 µM in [6] is 93.7%. Also, the viability at 24 h, 10 µM in data set [7] came out at 85.7%. The Activity entry in the data set with HepG2 [8] is reported as “Non-Toxic”; in the data set with HepG2 [9], 20%.
As to `CC(C)=CCn1c(CN2CCN(C(=O)C3CC3)CC2)nc2ccccc21`, the IC50 is 1500 nM in [1]; 1620 nM on Retinal dehydrogenase 2; 1270 nM in [3]; 1480 nM in [4]; 2150 nM in data set [13]. For the same molecule, the inhibition in data set [2] was 74.3%.
Regarding `O=C(C1CC1)N1CCN(Cc2nc3ccccc3n2Cc2cccc(Cl)c2)CC1`, the IC50 in data set [1] was 2110 nM; on Retinal dehydrogenase 2, 890 nM; in data set [3], 1010 nM; in data set [4], 2310 nM; in data set [13] it was 1450 nM. Also, the inhibition in [2] is 71.6%.
